Measured values taken from PubChem BioAssay AID1918953 (Molecular Pharmacology Branch, DTP, NCI, 2023).
Values joined by “and” are separate entries in the source; they are usually repeats but may differ in a detail not shown here. Identical values can stand only once.

System: MDA-MB-231 complex spheroid viability
Experiment: Anticancer human tumor MDA-MB-231/ATCC cell line growth inhibition;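 also: drug exposure lasted 7 days starting on day 3 of spheroid growth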
Conditions: for viability, T/C: stronger effect = lower value
Source text: Multicellular complex tumor spheroid response to LSD1 Inhibitor Iadademstat in combination with a variety of drugs and investigational agents in selected tumor cell lines
The current study was undertaken to assess response to LSD1 inhibitors in combination with standard-of-care drugs and investigational agents in solid tumor complex spheroid models as well as in the K-562 leukemia. Complex spheroids include a stromal component modeled by human endothelial cells (HUVEC) and fibroblasts modeled by human mesenchymal stem cells (MSCs). The concentration ranges selected for each drug and investigational agent were based upon clinically achievable concentrations if the clinical Cmax of the agent was known.
Compounds. The drugs and investigational agents used in this study are listed on Table 1. All of the agents used, including staurosporine (NSC755774) and gemcitabine (NSC613327), were obtained from the Developmental Therapeutics Program, NCI. FDA-approved anticancer drugs are available from the NCI at http://dtp.nci.nih.gov/branches/dscb/oncology_drugset_explanation.html. Drugs and investigational agents were >95% pure by proton nuclear magnetic resonance (NMR) and liquid chromatography/mass spectrometry (LC/MS). Stock solutions were prepared at 400x in DMSO, stored at -70 degrees C, and diluted in fresh medium prior to their use. The final concentration of DMSO in cell culture wells never exceeded 0.25% (v/v). The FDA-approved anticancer drug set is available from the Developmental Therapeutics Program at https://dtp.cancer.gov/organization/dscb/obtaining/available_plates.htm. All drugs and investigational agents were tested over a range starting from a high concentration at or near the clinical Cmax and decreasing in half-log increments. If the clinical Cmax for an agent had not been determined, the highest concentration tested was 10 microM.
Cell Lines. The patient-derived cancer cell (PDC) lines: 292921-168-R-J2-PDC, K24384-001-R-PDC, and 521955-158-R2-J5-PDC pancreatic carcinomas, 556581-035-R-J1 ovarian carcinoma, 324938-238-R-J1-PDC, 855422-203-R-J1-PDC and 883617-216-R-J1-PDC urothelial bladder carcinomas, 743489-274-T-PDC renal cell carcinoma, 138582-R-J1 Merkel cell tumor, K60290-347-R-J1 and K57222-313-R-J1-PDC glioblastomas, 653999-131-R-J2-PDC, LG0703-F948-PDC, and 349418-098-R-PDC non-small cell lung carcinomas, 885512-296-R-J2-PDC, 171881-019-R-J1-PDC breast carcinomas and 186277-243-T-J2-PDC and 233499-124-R-J2-PDC colon carcinomas were obtained from the NCI Patient-Derived Models Repository (PDMR, https://pdmr.cancer.gov). The established cell lines NCI/ADR-RES (RRID:CVCL_14520 and OVCAR-5 (RRID:CVCL_1628) ovarian carcinomas, 786-O (RRID:CVCL_1051) and A498 (RRID:CVCL_A498) renal cell carcinoma, NCI-H211 (ATCC, cat. CRL-5824; RRID:CVCL_1529), NCI-H196 (ATCC, cat. CRL-5823, RRID:CVCL_1509), SW 1271 (ATCC, cat. CRL-2177, RRID:CVCL_1716) and NCI-H1876 (ATCC, cat. CRL-5902, RRID:CVCL_1503) small cell lung carcinomas, MDA-MB-231 (RRID:CVCL_0062) and MDA-MB-468 (RRID:CVCL_0419)breast carcinomas (10-12). Pooled donor human umbilical vein endothelial cells (HUVEC, Lonza, cat. CC-2519) and human mesenchymal stem cells (hMSC, Lonza, cat. PT-2501) were purchased from Lonza (Walkersville, MD).
Cell Culture. All cells were maintained in an incubator at 37 degrees C and 5% CO2 with 95% humidity. The PDC lines were cultured according to standard operating procedures established by the NCI PDMR (https://pdmr.cancer.gov). Briefly all PDCs were thawed and cultured in Matrigel-coated flasks prepared with a working solution of 1X Ham's F-12 nutrient mix, without supplementation (Invitrogen, Waltham, MA, cat. 11765054), 100 U/mL penicillin-streptomycin (Invitrogen, cat. 15140122), and 2.5% Matrigel (Corning Inc., Corning, NY, cat. 354248) for the first three passages. […]

[1] = curve of first compound, second compound 0.1 µM
[2] = curve of first compound, second compound 0.316 µM
[3] = curve of first compound, second compound 1 µM
[4] = curve of first compound, second compound 3.16 µM
[5] = curve of first compound, second compound 10 µM
[6] = second compound 0.1 µM, first compound 0.00949 µM
[7] = second compound 0.1 µM, first compound 0.03 µM
[8] = second compound 0.1 µM, first compound 0.0949 µM
[9] = second compound 0.1 µM, first compound 0.3 µM
[10] = second compound 0.1 µM, first compound 0.949 µM
[11] = second compound 0.1 µM, first compound 3 µM
[12] = second compound 0.316 µM, first compound 0.00949 µM
[13] = second compound 0.316 µM, first compound 0.03 µM
[14] = second compound 0.316 µM, first compound 0.0949 µM
[15] = second compound 0.316 µM, first compound 0.3 µM
[16] = second compound 0.316 µM, first compound 0.949 µM
[17] = second compound 0.316 µM, first compound 3 µM
[18] = second compound 1 µM, first compound 0.00949 µM
[19] = second compound 1 µM, first compound 0.03 µM
[20] = second compound 1 µM, first compound 0.0949 µM
[21] = second compound 1 µM, first compound 0.3 µM
[22] = second compound 1 µM, first compound 0.949 µM
[23] = second compound 1 µM, first compound 3 µM
[24] = second compound 3.16 µM, first compound 0.00949 µM
[25] = second compound 3.16 µM, first compound 0.03 µM
[26] = second compound 3.16 µM, first compound 0.0949 µM
[27] = second compound 3.16 µM, first compound 0.3 µM
[28] = second compound 3.16 µM, first compound 0.949 µM
[29] = second compound 3.16 µM, first compound 3 µM
[30] = second compound 10 µM, first compound 0.00949 µM
[31] = second compound 10 µM, first compound 0.03 µM
[32] = second compound 10 µM, first compound 0.0949 µM
[33] = second compound 10 µM, first compound 0.3 µM
[34] = second compound 10 µM, first compound 0.949 µM
[35] = second compound 10 µM, first compound 3 µM

Row | Structure (SMILES) | IC50 [1] | IC50 [2] | IC50 [3] | IC50 [4] | IC50 [5] | viability, T/C [6] | viability, T/C [7] | viability, T/C [8] | viability, T/C [9] | viability, T/C [12] | viability, T/C [13] | viability, T/C [14] | viability, T/C [15] | viability, T/C [18] | viability, T/C [19] | viability, T/C [20] | viability, T/C [21] | viability, T/C [24] | viability, T/C [25] | viability, T/C [26] | also measured
1 | CCN(c1cc(-c2ccc(CN3CCOCC3)cc2)cc(C(=O)NCc2c(C)cc(C)[nH]c2=O)c1C)C1CCOCC1 + NC1CCC(NC2CC2c2ccccc2)CC1 | > 3000 nM | > 3000 nM | > 3000 nM | > 3000 nM | 587 nM | 104% | 93.3% | 80.4% | 74.6% | 98.4% | 94% | 81.1% | 73.5% | 95.2% | 91.1% | 75.1% | 75.8% | 78% | 73.2% | 65.4% | viability, T/C [10]: 70.1%; viability, T/C [11]: 59.8%; viability, T/C [16]: 68.4%; viability, T/C [17]: 59.5%; viability, T/C [22]: 64%; viability, T/C [23]: 58.4%; viability, T/C [27]: 66%; viability, T/C [28]: 60%; viability, T/C [29]: 55.2%; viability, T/C [30]: 55.9%; viability, T/C [31]: 61.5%; viability, T/C [32]: 54.8%; viability, T/C [33]: 48.6%; viability, T/C [34]: 50.5%; viability, T/C [35]: 43.5%
2 | Nc1ncn(C2CC(O)C(CO)S2)c(=O)n1 (stereo unspecified) + NC1CCC(NC2CC2c2ccccc2)CC1 | 19.9 nM | 21.2 nM | 14.7 nM | 8.38 nM | 3.2 nM | 63% | 44.3% | 24.2% | 12.3% | 65.1% | 46.4% | 21.9% | 12% | 58.5% | 37.7% | 19.5% | 11.2% | 49.9% | 32% | 17.9% | viability, T/C (second compound 0.1 µM, first compound 0.000949 µM): 94.4%; viability, T/C (second compound 0.1 µM, first compound 0.003 µM): 78.2%; viability, T/C (second compound 0.316 µM, first compound 0.000949 µM): 93.2%; viability, T/C (second compound 0.316 µM, first compound 0.003 µM): 77.5%; viability, T/C (second compound 1 µM, first compound 0.000949 µM): 95.2%; viability, T/C (second compound 1 µM, first compound 0.003 µM): 77.8%; viability, T/C (second compound 3.16 µM, first compound 0.000949 µM): 77.2%; viability, T/C (second compound 3.16 µM, first compound 0.003 µM): 62.6%; viability, T/C [27]: 12%; viability, T/C (second compound 10 µM, first compound 0.000949 µM): 61.2%; viability, T/C (second compound 10 µM, first compound 0.003 µM): 50.1%; viability, T/C [30]: 37.6%; viability, T/C [31]: 23.8%; viability, T/C [32]: 15.9%; viability, T/C [33]: 12.6%
3 | COc1cc(C2c3cc4c(cc3C(OC3OC5COC(C)OC5C(O)C3O)C3COC(=O)C23)OCO4)cc(OC)c1O (stereo unspecified) + NC1CCC(NC2CC2c2ccccc2)CC1 | 153 nM | 146 nM | 130 nM | 85.3 nM | 47.5 nM | 93.9% | 79.8% | 56.2% | 41.6% | 98.8% | 79.2% | 56.1% | 40.7% | 91.1% | 73.1% | 56% | 37.6% | 79.6% | 60.5% | 50.1% | viability, T/C [10]: 15.6%; viability, T/C [11]: 8.25%; viability, T/C [16]: 16.8%; viability, T/C [17]: 9.41%; viability, T/C [22]: 18.3%; viability, T/C [23]: 10.5%; viability, T/C [27]: 38.2%; viability, T/C [28]: 17.8%; viability, T/C [29]: 13.3%; viability, T/C [30]: 59.5%; viability, T/C [31]: 52.3%; viability, T/C [32]: 44.4%; viability, T/C [33]: 33%; viability, T/C [34]: 17.7%; viability, T/C [35]: 14.4%
4 | O=C(C=Cc1cccc(S(=O)(=O)Nc2ccccc2)c1)NO |  |  |  |  |  |  |  |  |  |  |  |  |  |  |  |  |  |  |  |  | viability, T/C (compound 0.00949 µM): 82.2% and 70.1%; viability, T/C (compound 0.03 µM): 62.3% and 50.3%; viability, T/C (compound 0.0949 µM): 52.9% and 31.3%; viability, T/C (compound 0.3 µM): 24.5% and 17.3%; viability, T/C (compound 0.949 µM): 13.2% and 0.72%; IC50 (curve of compound): 81.6 nM and 30.6 nM
5 | Nc1ccccc1NC(=O)c1ccc(CNC(=O)OCc2cccnc2)cc1 + NC1CC1c1ccc(-c2cccc(O)c2)cc1 | 13.3 nM | 10.5 nM | < 9.49 nM | < 9.49 nM | < 9.49 nM | 56.6% | 34.9% | 22.7% | 12.2% | 52.7% | 31.5% | 21% | 10.6% | 43.3% | 27% | 21.7% | 9.99% | 46.3% | 31.6% | 21.3% | viability, T/C [10]: 2.07%; viability, T/C [11]: 0.17%; viability, T/C [16]: 1.85%; viability, T/C [17]: 0.16%; viability, T/C [22]: 1.67%; viability, T/C [23]: 0.15%; viability, T/C [27]: 13.3%; viability, T/C [28]: 1.34%; viability, T/C [29]: 0.13%; viability, T/C [30]: 36.3%; viability, T/C [31]: 22.1%; viability, T/C [32]: 12%; viability, T/C [33]: 7.05%; viability, T/C [34]: 0.48%; viability, T/C [35]: 0.24%
